Data from US20080146593A1, “Substituted 5-Phenyl Pyrimidines I In Therapy” (Basf Aktiengesellschaft, priority 2005, published 2008).

Test system: HeLa cells
Assay: Measurement of the cell cycle inhibition in HeLa cells
Assay type: cell-based
Details: HeLa B cells, 20 h incubation with compound; FACS ratio G0/G1 to G2/M vs DMSO; concentration at which 50% of cells are in cell cycle arrest
Procedure, shortened: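 HeLa B cells exposed 20 h to compounds (1×10^−9 to 1×10^−6 M final), then lysed in RNase/propidium iodide buffer and analysed by FACS. G0/G1 to G2/M ratio compared with DMSO controls; IC50 is concentration giving 50% of cells in cell cycle arrest.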

Point of comparison: `CC(C)Nc1nc(-n2ccc(C(F)(F)F)n2)nc(Cl)c1-c1c(F)cc(F)cc1F` [Example 16], IC50 46 nM. Against it:
- Cc1nc(-n2cccn2)nc(N[C@@H](C)C(F)(F)F)c1-c1c(F)cc(F)cc1F [Example 156] — 3.1-fold lower, 15 nM
- CC1CCN(c2nc(-n3ccnn3)nc(Cl)c2-c2c(F)cccc2F)CC1 [Example 117] — 2.4-fold lower, 19 nM
- CON=C(N)c1nc(Cl)c(-c2c(F)cc(OC)cc2F)c(N2CCC(C)CC2)n1 [Example 197] — within 1.5-fold, 42 nM
- CC(C)c1ccn(-c2nc(Cl)c(-c3c(F)cc(F)cc3F)c(N[C@@H](C)C(F)(F)F)n2)n1 [Example 5] — 10-fold lower, 4.6 nM
- COc1ccc(-c2c(Cl)nc(C(N)=O)nc2N[C@@H](C)C(C)C)c(Cl)c1 [Example 183] — within 1.5-fold, 53 nM
- C[C@H](Nc1nc(-c2nccs2)nc(Cl)c1-c1c(F)cc(F)cc1F)C(F)(F)F [Example 129] — 3.3-fold lower, 14 nM
- CCC(C)Nc1nc(-n2cncn2)nc(Cl)c1-c1c(F)cccc1F (stereo not drawn) [Example 113] — within 1.5-fold, 49 nM
- CNC(=O)c1nc(Cl)c(-c2c(F)cc(F)cc2F)c(N[C@@H](C)C(F)(F)F)n1 [Example 174] — within 1.5-fold, 42 nM
- C[C@H](Nc1nc(-n2cccn2)nc(Cl)c1-c1c(F)cc(F)cc1F)C(F)(F)F [Example 1] — 9.6-fold lower, 4.8 nM
- CC(C)Nc1nc(-n2cc(Br)cn2)nc(Cl)c1-c1c(F)cc(F)cc1F [Example 17] — within 1.5-fold, 45 nM
- CCC(C)Nc1nc(-n2ccnn2)nc(Cl)c1-c1c(F)cccc1F (stereo not drawn) [Example 114] — within 1.5-fold, 41 nM
- CC(C)Nc1nc(-n2cccn2)nc(Cl)c1-c1c(F)cc(F)cc1F [Example 101] — within 1.5-fold, 33 nM
- Cc1nc(-n2cncn2)nc(N2CCC(C)CC2)c1-c1c(F)cc(F)cc1F [Example 93] — within 1.5-fold, 39 nM
- Cc1ccc(-c2c(Cl)nc(-n3cncn3)nc2N[C@@H](C)C(C)C)c(F)c1 [Example 100] — within 1.5-fold, 40 nM
- CC(C)[C@H](C)Nc1nc(-n2ccnn2)nc(Cl)c1-c1c(F)cc(F)cc1F [Example 139] — 1.8-fold lower, 26 nM
- CC1CCN(c2nc(-n3cccn3)nc(Cl)c2-c2c(F)cccc2Cl)CC1 [Example 66] — within 1.5-fold, 37 nM
- Cc1cc(C)n(-c2nc(Cl)c(-c3c(F)cc(F)cc3F)c(N3CCC(C)CC3)n2)n1 [Example 30] — within 1.5-fold, 48 nM
- C[C@H](Nc1nc(-n2nccc2[N+](=O)[O-])nc(Cl)c1-c1c(F)cc(F)cc1F)C(F)(F)F [Example 7] — 2.2-fold lower, 21 nM
- CC(C)[C@@H](C)Nc1nc(-n2cncn2)nc(Cl)c1-c1c(F)cccc1Cl [Example 48] — 3.5-fold lower, 13 nM
- Cc1nc(-n2ccnn2)nc(N[C@@H](C)C(F)(F)F)c1-c1c(F)cc(F)cc1F [Example 157] — 2.4-fold lower, 19 nM
